Results on 4 molecules are retold here after US4621089A, “Pyrazolopyridine derivatives and their use in treating inflammation and allergic conditions” (Beecham Group p.l.c., priority 1984, dated 1986).

The subject of test [1] is mouse sensitised to oxazolone. The experiment in a line: Mouse Oxazolone Screen (topical anti-inflammatory activity). Format: in vivo. The note with it: 500 μg/ear topical, ear weights 24 h after oxazolone challenge. How it is done: Compounds were tested for topical anti-inflammatory activity in a screen using the mouse sensitised to oxazolone, by a method modified from that of Dietrich and Hess [Dietrich, F. M., and Hess, R., Int. Arch. Allergy, (1970), 38, 246-259].
Mice were sensitised with oxazolone (2 mg in 20 μl ethanol) on a shaved area of the abdomen. Five days later, the animals recieved 10 μl THF/MeOH (1:1 v/v) on the right ear, and the test compound in the same solvent on the left ear. One hour later, the animals were challenged with 100 μg oxazolone in 10 μl acetone on each ear. Ear weights were measured 24 h later. Percentage inhibition of the inflammatory swelling refers to the increase in weight of left ears (oxazolone plus compound) compared with solvent-treated negative controls, as a proportion of the increase in weight of right ears (oxazolone alone) over similar controls.

A further test deals with cantharidin mouse ear. The test is described as follows: Mouse Cantharidin Screen (topical anti-inflammatory activity, mouse ear). Format: in vivo. The following applies: ears weighed 24 h after cantharidin. As for the experimental part:
Compounds were tested for topical anti-inflammatory activity in a cantharidin mouse ear screen, modified from Swinge et al [Swingle, K. F., Reiter, M. J. and Schwartzmiller, D. H., Arch. Int. Pharmacodyn., (1981), 254, 168-176].
25 μg cantharidin (in 10 μl THF/MeOH) was applied to both ears. Compound, in the same solvent, was applied at the same time, to the left ear only. Ears were weight 24 h after cantharidin application. Percentage inhibition of the acute inflammatory swelling refers to the increase in weight of left ears (cantharidin plug compound) compared with solvent-treated negative controls, as a proportion of the increase in weight of right ears (cantharidin alone) over similar controls.

In test [2] the test system is 5-Lipoxygenase enzyme from RBL-1 cells. The test is described as follows: RBL-1 5-Lipoxygenase Screen. It counts as biochemical. The note with it: 20 μM compound, 10,000 g supernatant, 6.3 μm arachidonic acid, 29° C. As for the experimental part:
5-Lipoxygenase enzyme was prepared as a 10,000 g supernatant from RBL-1 cells by the method of Jakschik [Jakschik, B. A., Sun. F. F., Lee, L. M. and Steinhoff, M. M., 1980, Biochem. Biophys. Res. Comm. 95, 103]. The 10,000 g supernatant was diluted with homogenization buffer to the equivalent of 1.5-2.5×10^7 cells ml^-1 and made 2 mM with respect to CaCl2. Aliquots of 0.5 ml were then dispensed into tubes, and incubated at 29° C. with 5 γl ethanol or compound in ethanol at the desired concentration for 2 min. Then [1-^14 C] arachidonic acid was added in buffer to give a final concentration of 6.3 μm and 0.2 μCi per incubation, and the reaction continued at 29° C. for 2 min. The reaction was terminated by adding 1 ml of acetone and cooling on ice, 0.5 ml of ice-cold saline and 10 μl of 2N formic acid were added, and the mixture was extracted with 2×2 ml of chloroform. The extract was stored under N2 at -20° C. until analysis by chromatography. Activity was measured as the percentage of total radioactivity found in 5-HETE and 5,12-diHETE, and inhibition calculated as the decrease in formation of the sum of these two species in compound-treated incubates relative to control incubates.

Another test relates to mice. The note with it: J. Heterocycl. Chem. 1971, 8(6), 1035-7; cited from earlier work.

Take `CCOC(=O)c1cnc2cn[nH]c2c1Nc1ccccc1` [Example 1, Ethyl 7-anilino-1H-pyrazolo[4,3-b]pyridine-6-carboxylate]: in test [1], the “inhibition of the inflammatory swelling” value is recorded as 24%.
Take `C=CCNc1c(C(=O)OCC)cnc2cn[nH]c12` [Example 2, Ethyl 7-Allylamino-1H-pyrazolo[4,3-b]-pyridine-6-carboxylate]: the “inhibition of the acute inflammatory swelling” value with cantharidin mouse ear (500 μg/ear topical) was determined as 20%.
With `CCCCNc1c(C(=O)OCC)cnc2cn[nH]c12` [Example 6, Ethyl 7-n-Butylamino-1H-pyrazolo[4,3-b]pyridine-6-carbosylate], the “inhibition of formation of 5-HETE and 5,12-diHETE” value in test [2] stood at 78%. The “inhibition of the acute inflammatory swelling” value with cantharidin mouse ear (200 μg/ear topical) worked out at 42%.
Turning to `CC(=O)N(C(C)=O)c1cc(C)nc2c(C)n[nH]c12` [compound wherein R is NAc2], the CNS antidepressant activity entry with mice is listed as “CNS antidepressant activity”.
